The source of these data is patent publication US9458184B2, “Compositions of TLR7 and/or TLR8 agonists conjugated to lipids” (CAYLA, priority 2012, dated 2016).

For one series, the system named is plasmid DNA. Format: physicochemical.
For another series, the system named is human HEK293 cell line. In words: Cell transfection with SEAP plasmid, HEK293. Format: cell-based. The note with it: complexed with pVitro14 LGFP SEAP plasmid, HEK293, 48 hours.
The next series has as its target T1, human TLR7 (Homo sapiens, UniProt Q9NYK1).
T1 sequence (Q9NYK1 27-1049): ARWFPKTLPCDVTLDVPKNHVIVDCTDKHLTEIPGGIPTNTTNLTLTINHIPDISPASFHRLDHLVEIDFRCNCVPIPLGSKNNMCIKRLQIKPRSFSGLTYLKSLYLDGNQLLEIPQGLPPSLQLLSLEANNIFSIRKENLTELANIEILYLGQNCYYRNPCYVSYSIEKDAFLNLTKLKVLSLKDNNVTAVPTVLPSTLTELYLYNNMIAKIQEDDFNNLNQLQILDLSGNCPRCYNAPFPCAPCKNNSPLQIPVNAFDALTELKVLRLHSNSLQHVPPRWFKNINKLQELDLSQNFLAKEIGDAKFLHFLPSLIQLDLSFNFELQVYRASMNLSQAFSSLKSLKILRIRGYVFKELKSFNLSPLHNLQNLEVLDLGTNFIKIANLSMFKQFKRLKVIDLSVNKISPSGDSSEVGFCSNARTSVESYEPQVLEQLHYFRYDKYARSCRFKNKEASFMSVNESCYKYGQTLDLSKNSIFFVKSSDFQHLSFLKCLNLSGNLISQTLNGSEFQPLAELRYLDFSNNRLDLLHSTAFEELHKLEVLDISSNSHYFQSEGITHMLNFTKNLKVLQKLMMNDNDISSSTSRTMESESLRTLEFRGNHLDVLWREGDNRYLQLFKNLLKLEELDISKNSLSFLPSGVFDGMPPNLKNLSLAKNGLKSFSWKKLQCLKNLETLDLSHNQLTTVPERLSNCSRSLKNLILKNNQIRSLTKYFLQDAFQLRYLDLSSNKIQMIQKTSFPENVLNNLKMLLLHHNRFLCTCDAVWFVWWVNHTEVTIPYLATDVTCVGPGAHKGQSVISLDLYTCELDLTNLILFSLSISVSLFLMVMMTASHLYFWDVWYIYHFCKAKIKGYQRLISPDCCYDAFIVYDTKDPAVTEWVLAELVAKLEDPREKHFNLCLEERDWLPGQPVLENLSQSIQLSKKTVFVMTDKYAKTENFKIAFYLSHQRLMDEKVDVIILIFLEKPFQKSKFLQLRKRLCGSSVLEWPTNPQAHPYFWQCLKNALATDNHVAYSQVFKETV
The series is described as follows: HEK-Blue hTLR7 NF-κB/AP-1 SEAP reporter cell assay.

The subject of series [1] is mouse B16 melanoma cell line. In words: Cell transfection with SEAP plasmid, B16. Format: cell-based. The note with it: complexed with pVitro14 LGFP SEAP plasmid, B16, 48 hours.
Another series deals with B16-F1 tumor. The series is described as follows: Mouse B16 tumor model, intratumoral injection. In kind it is in vivo, C57BL/6 mice. The conditions noted are these: by day 28, 3 intra-tumoral injections, 40 μg in 100 μl.

In the case of `CCCCCCCCCCCCCCCCOP(=O)(CCCN[C@@H](CCCCNC(=O)CNC(=O)c1ccc(Cn2c(O)nc3c(N)nc(NCCCC)nc32)cc1)C(=O)NCCCNCCCCNCCCN)OCCCCCCCCCCCCCCCC` [CL481, (S)-dihexadecyl 19-amino-5-(4-(2-(4-((6-amino-2-(butylamino)-8-hydroxy-9H-purin-9-yl)methyl)benzamido)acetamido)butyl)-6-oxo-4,7,11,16-tetraazanonadecylphosphonate], the “complex formation with pDNA (retardation of pDNA migration in gel)” value in the series on plasmid DNA is reported as “inability to form complex with plasmid DNA”. Further, the “transfection (SEAP reporter gene expression)” value (with human HEK293 cell line; in series [1]) was “inability to transfect cells” throughout. Besides, the “TLR7 activity (NF-κB/AP-1-inducible SEAP reporter)” value (from here on “TLR7 activity”) at human TLR7 was “strong and specific TLR7 activity”.

In the case of `CCCCNc1nc(N)c2nc(O)n(Cc3ccc(C(=O)NCC(=O)NCCCNCCCCNCCCNCCCP(=O)(OCCC(C)CCCC(C)CCCC(C)CCCC(C)C)OCCC(C)CCCC(C)CCCC(C)CCCC(C)C)cc3)c2n1` (centres unmarked) [CL347, bis(3,7,11,15-tetramethylhexadecyl) 1-(4-((6-amino-2-(butylamino)-8-hydroxy-9H-purin-9-yl)methyl)phenyl)-1,4-dioxo-2,5,9,14,18-pentaazahenicosan-21-ylphosphonate], the survival of mice result in the series with B16-F1 tumor is reported as “no survival”. Besides, the “TLR7 activity” value on human TLR7 was “strong and specific TLR7 activity”.

For `CCCCNc1nc(N)c2nc(O)n(Cc3ccc(C(=O)NCCCNCCCCNCCCNCCCP(=O)(OCCC(C)CCCC(C)CCCC(C)CCCC(C)C)OCCC(C)CCCC(C)CCCC(C)CCCC(C)C)cc3)c2n1` (centres unmarked) [CL346, bis(3,7,11,15-tetramethylhexadecyl) 1-(4-((6-amino-2-(butylamino)-8-hydroxy-9H-purin-9-yl)methyl)phenyl)-1-oxo-2,6,11,15-tetraazaoctadecan-18-ylphosphonate], the “TLR7 activity” value at human TLR7 is “strong and specific TLR7 activity”.

With `CCCCNc1nc(N)c2nc(O)n(Cc3ccc(C(=O)NCC(=O)NCCCC[C@H](NCCCP(=O)(OCCC(C)CCCC(C)CCCC(C)CCCC(C)C)OCCC(C)CCCC(C)CCCC(C)CCCC(C)C)C(=O)NCCCNCCCCNCCCN)cc3)c2n1` (stereo in doubt) [CL493, (S)-bis(3,7,11,15-tetramethylhexadecyl) 19-amino-5-(4-(2-(4-((6-amino-2-(butylamino)-8-hydroxy-9H-purin-9-yl)methyl)benzamido)acetamido)butyl)-6-oxo-4,7,11,16-tetraazanonadecylphosphonate], the “TLR7 activity” value at human TLR7 was “strong and specific TLR7 activity”.
